Publication PMC8872362, “Balanced Polymorphism at the Pgm-1 Locus of the Pompeii Worm Alvinella pompejana and Its Variant Adaptability Is Only Governed by Two QE Mutations at Linked Sites” (Genes, 2022)
Read-outs that look alike come from different tables or passages of the source.

Test system: PGM-1 (recombinant isoform PGM100, E155 E190)
Assay: G6PD-coupled NADPH assay, Lineweaver-Burk
Format: biochemical, Alvinella pompejana
Settings: 50 mM Tris-HCl pH 7.4, 0.5 M MgCl2 (so in the source), 1.2 mM NADP, 0.1 µM G6PD, G1P 0.2-60 mM, 17 °C
From the text: G6PD-coupled NADPH assay, Lineweaver-Burk on PGM-1 (recombinant isoform PGM100, E155 E190)

Which results are given for O=P(O)(O)O[C@H]1O[C@H](CO)[C@@H](O)[C@H](O)[C@H]1O [G1P, α-D-glucose 1-phosphate]?
Km (PGM78, natural allele QE, read-out: PGM 78 / 1st Transition): 0.76 ± 0.07 mM; Km (PGM90, natural allele EQ, read-out: PGM 90 / 1st Transition): 6.25 ± 0.35 mM; Km (read-out: PGM 100 / 1st Transition): 5.22 ± 0.74 mM
